{"source": "patent US20040194155A1", "about": "“HBV mutations associated with reduced susceptibility to adefovir” (priority 2002, published 2004)", "key": {"[1]": {"test_system": "rtN236T mutant HBV (patient-derived clones)", "test": "Whole HBV genome cell culture assay (HepG2 transient transfection), rtN236T clones", "format": "cell-based, hepatitis B virus", "settings": "for susceptibility of rtN236T mutant (in words): in vitro; for IC50 Fold Change (rtN236T/Wild-type): patient-derived HBV strain, rtN236T vs wild-type (Table 7)"}, "[2]": {"test_system": "rtN236T + rtA181T double mutant HBV", "test": "Whole HBV genome cell culture assay, rtA181T introduced by site-directed mutagenesis into rtN236T clones of patient 0454-2506", "format": "cell-based, hepatitis B virus", "settings": "adefovir, patient-derived HBV (0454-2506)", "text": "(§1) One patient (0454-2506) with the rtN236T mutation also developed a second conserved site mutation rtA181T at week 96. However, all week 96 isolates derived from the patient encoding both rtN236T and rtA181T were replication deficient in vitro; the reason for this is unclear. To assess the adefovir sensitivity of HBV containing both rtN236T and rtA181Tmutations, an artificial construct was obtained by modifying an existing patient-derived HBV clone. The rtA181T mutation was introduced by site-directed mutagenesis into replicating HBV clones from patient 0454-2506 that already encoded rtN236T. The resulting double mutants were replication competent and were used for adefovir susceptibility testing. […] The rtA181T mutation was also introduced into a standard HBV lab strain (genotyped, ayw) to assess the individual contribution of the rtA181T mutation."}, "[3]": {"test_system": "Lab HBV strain, rtA181T mutant", "test": "In vitro adefovir susceptibility of HBV lab strain with introduced rtA181T", "format": "cell-based, hepatitis B virus", "text": "as §1"}, "[4]": {"test_system": "wild-type HBV (patient-derived baseline clones)", "test": "Whole HBV genome cell culture assay: patient-derived HBV clones transiently transfected into HepG2 cells, 7 days drug, Southern blot of intracellular replicating virus DNA", "format": "cell-based, hepatitis B virus", "settings": "adefovir, patient-derived HBV (0454-2506), reference"}, "[5]": {"test_system": "rtK241E + rtK318Q mutant HBV (patient-derived clones)", "test": "Whole HBV genome cell culture assay (HepG2 transient transfection), rtK241E + rtK318Q clones", "settings": "in vitro, patient 0370-3503", "method": "All conserved site substitutions were evaluated for their effects on adefovir susceptibility using a novel approach to generate full-length patient-derived HBV clones. […] Full-length viral genomes were cloned into the lethal selection vector pCAP^s at a Mlu Nl site through blunt-end ligation (PCR Cloning Kit, Roche) and then subcloned into plasmid pHY106, a pBluescript KS (+)-derived plasmid containing a CMV promoter and the minimal 5′ and 3′ HBV sequence necessary (approximately 180 total bases) for viral replication after the insertion of a genome-length clinical HBV isolate. Drug susceptibility of patient-derived clones was analyzed by transient transfection into HepG2 cells.\nTo investigate if these conserved site mutations conferred resistance to adefovir, adefovir susceptibility of HBV isolates derived from the above five patients was evaluated using a whole HBV genome cell culture assay as described above."}, "[6]": {"test_system": "HBV", "test": "Phase 3 clinical study GS-98-438, HBeAg negative chronic hepatitis B patients", "format": "in vivo, human", "experimental": "The median serum HBV DNA levels declined by 3.5 and 3.9 log10 copies/mL from baseline to week 48 in the ADV 10 mg dose groups in HBeAg positive (Study GS-98-437) and in HBeAg negative (Study GS-98-438) chronic hepatitis B patients, respectively.\nAdefovir resistance surveillance was performed in a blinded manner in HBeAg negative chronic hepatitis B patients treated for 96 weeks in a Phase 3 double-blind, randomized, placebo-controlled clinical study (GS-98-438) of adefovir dipivoxil 10 mg (ADV). The analysis included 79 patients who received ADV 10 mg daily for the first 48 weeks and were randomized to also receive ADV 10 mg during the second 48 weeks.\nThe reverse transcriptase (RT) domain of the HBV polymerase gene (rt1 to rt344) was sequenced for HBV DNA extracted from baseline and week 96 serum samples (or the last on-study sample) for the 79 patients treated continuously with ADV for 96 weeks if the samples had detectable serum HBV DNA (≧1000 copies/mL by Roche Amplicor™ PCR assay) at the time points tested.\nStudy GS-98-438 is a randomized, double-blind, placebo-controlled Phase 3 clinical study of the safety and efficacy of ADV for the treatment of patients with HBeAg negative/anti-HBe positive/HBV DNA positive chronic hepatitis B. A total of 184 patients received at least one dose of study medication during the first 48 weeks (n=61 and 123 for the placebo and ADV 10 mg groups, respectively). During the second 48 weeks, all placebo patients switched to ADV 10 mg daily while the ADV-treated patients were re-randomized to either continue ADV or receive placebo at a 2:1 ratio. Accordingly, all patients who received at least one dose of study drug during the second 48 weeks are classified into three groups: PLB-ADV (n=60), ADV-ADV (n=79), and ADV-PLB (n=40).\nA virology substudy of Study GS-98-438 included all patients in the ADV 10 mg-ADV 10 mg group (n=79). The RT domain of the HBV polymerase gene from banked serum samples from these patients was genotypically analyzed at baseline, and either at week 96, or upon early termination during the second 48 weeks.\nIf the week 96 serum HBV DNA value was not available for a patient, the closest serum HBV DNA value prior to week 96 was used. All week 96 and the last on-drug samples are referred to as week 96 samples hereafter. Note that Roche Molecular Systems raised the lower limit of quantification of the HBV DNA PCR assay from 400 copies/mL to 1,000 copies/mL after Gilead completed the week 48 analyses for study 438."}}, "note": "“Also recorded” adds a separate entry of the source."}
{"smiles": "Cc1cn([C@@H]2C[C@@H](O)[C@H](CO)O2)c(=O)[nH]c1=O", "note": "[L-dT]", "values": [{"measurement": "susceptibility of rtN236T mutant (in words)", "setting": "[1]", "value": "remained susceptible"}, {"measurement": "IC50 Fold Change (rtN236T/Wild-type)", "setting": "[1]", "value": 2.4, "unit": "fold"}]}
{"smiles": "Nc1ncnc2c1ncn2CCOCP(=O)(O)O", "note": "[Adefovir, adefovir]", "values": [{"measurement": "IC50 Fold Change from Wild-Type", "setting": "[2]", "value": 2.5, "unit": "fold"}, {"measurement": "resistance conferred by rtA181T mutation (in words)", "setting": "[3]", "value": "did not confer resistance; also recorded: does not confer resistance"}, {"measurement": "IC50 Fold Change from Wild-Type", "setting": "[4]", "value": 1, "unit": "fold"}, {"measurement": "IC50 Fold Change (rtN236T/Wild-type)", "setting": "[1]", "value": 9.6, "unit": "fold"}, {"measurement": "susceptibility of rtK241E + rtK318Q double mutant (in words)", "setting": "[5]", "value": "not associated with resistance; also recorded: remained fully susceptible"}, {"measurement": "reduction in serum HBV DNA", "setting": "[6]; patient 0370-3503 (rtK241E + rtK318Q), week 96", "value": "> 5", "unit": "log10"}, {"measurement": "serum HBV DNA", "setting": "[6]; patient 0370-3503, week 96", "value": 3.1, "unit": "log10 copies/mL"}, {"measurement": "serum HBV DNA", "setting": "[6]; patient 0370-3503, week 156 (February of 2003)", "value": 3.6, "unit": "log10 copies/mL"}]}
{"smiles": "COc1ccc(Sc2nc(N)nc3c2ncn3CCOCP(=O)(OCC(F)(F)F)OCC(F)(F)F)cc1", "note": "[MCC-478]", "values": [{"measurement": "IC50 Fold Change (rtN236T/Wild-type)", "setting": "[1]", "value": 8.6, "unit": "fold"}]}
{"smiles": "C=C1[C@H](CO)[C@@H](O)C[C@@H]1n1cnc2c(=O)[nH]c(N)nc21", "note": "[Entecavir, entecavir]", "values": [{"measurement": "susceptibility of rtN236T mutant (in words)", "setting": "[1]", "value": "remained susceptible"}, {"measurement": "IC50 Fold Change (rtN236T/Wild-type)", "setting": "[1]", "value": 0.67, "unit": "fold"}]}
{"smiles": "CC(C)(C)C(=O)OCOP(=O)(COCCn1cnc2c(N)ncnc21)OCOC(=O)C(C)(C)C", "note": "[ADV, adefovir dipivoxil]", "values": [{"measurement": "number of patients with HBV DNA < 1000 copies/mL at week 96", "setting": "[6]; of 79 patients on ADV 10 mg for 96 weeks, Roche Amplicor PCR", "value": 58}]}
{"smiles": "C[C@H](Cn1cnc2c(N)ncnc21)OCP(=O)(O)O", "note": "[Tenofovir, tenofovir]", "values": [{"measurement": "IC50 Fold Change (rtN236T/Wild-type)", "setting": "[1]", "value": 4.2, "unit": "fold"}]}
